Assay results from patent US20230330093A1, “APPLICATION OF NITROGEN-CONTAINING SATURATED HETEROCYCLIC COMPOUND” (SHANGHAI PHARMACEUTICALS HOLDING CO., LTD., priority 2020, published 2023).

System: cynomolgus monkeys
Assay: 4-week safety study: routine ECG analysis
Type: in vivo
Procedure: Routine ECG analysis was performed at each scheduled time (day 1 after administration, d01 and d02 after administration, 1 and 24 h after administration on day 1, before administration, and 1 and 24 h after administration on day 26 and day 56). P-wave, R-wave, T-wave, P-R intervals, Q-T intervals, QRS duration and heart rate were recorded by an ECG system using derivation DII (ECG-6951E, Shanghai, China).

Molecule `COC(=O)NCCCn1nc([C@@H](C)N(C(=O)[C@H]2CNCCO2)C2CC2)c2ccc(C)nc21` [compound of Formula I] has an HR (Female, 20 mg/kg, 1 h (d 1)) of 230.1 ± 20.5 bmp, a QRS (Female, 20 mg/kg, 1 h (d 1)) of 38.0 ± 4.5 ms and a QT (Female, 20 mg/kg, 1 h (d 1)) of 160.0 ± 7.1 ms. For the same molecule, the QTc (Female, 20 mg/kg, 1 h (d 1)) was 250.2 ± 10.4 ms, the HR (Female, 20 mg/kg, 1 h (d 26)) was 262.8 ± 13.5 bmp and the QRS (Female, 20 mg/kg, 1 h (d 26)) was 36.0 ± 5.5 ms. It also gave a QT (Female, 20 mg/kg, 1 h (d 26)) of 140.0 ± 7.1 ms, a QTc (Female, 20 mg/kg, 1 h (d 26)) of 228.9 ± 8.0 ms and an HR (Female, 20 mg/kg, 24 h (d 1)) of 209.8 ± 9.3 bmp. The QRS (Female, 20 mg/kg, 24 h (d 1)) was 34.0 ± 8.9 ms, the QT (Female, 20 mg/kg, 24 h (d 1)) was 158.0 ± 4.5 ms and the QTc (Female, 20 mg/kg, 24 h (d 1)) was 239.7 ± 5.4 ms. For the same molecule, the HR (Female, 20 mg/kg, 24 h (d 26)) was 245.4 ± 43.9 bmp, the QRS (Female, 20 mg/kg, 24 h (d 26)) was 36.0 ± 5.5 ms and the QT (Female, 20 mg/kg, 24 h (d 26)) was 150.0 ± 10.0 ms. The QTc (Female, 20 mg/kg, 24 h (d 26)) was 238.6 ± 14.1 ms, the HR (Female, 20 mg/kg, d0) was 185.7 ± 48.0 bmp and the QRS (Female, 20 mg/kg, d0) was 34.0 ± 5.5 ms. It also gave a QT (Female, 20 mg/kg, d0) of 170.0 ± 20.0 ms, a QTc (Female, 20 mg/kg, d0) of 244.6 ± 14.3 ms and an HR (Female, 20 mg/kg, d 56) of 238.0 ± 29.2 bmp. The QRS (Female, 20 mg/kg, d 56) was 40.0 ± 0.0 ms, the QT (Female, 20 mg/kg, d 56) was 160.0 ± 0.0 ms and the QTc (Female, 20 mg/kg, d 56) was 253.1 ± 10.4 ms. It also gave an HR (Female, 100 mg/kg, 1 h (d 1)) of 228.5 ± 12.8 bmp, a QRS (Female, 100 mg/kg, 1 h (d 1)) of 36.0 ± 5.5 ms and a QT (Female, 100 mg/kg, 1 h (d 1)) of 160.0 ± 7.1 ms. The QTc (Female, 100 mg/kg, 1 h (d 1)) was 249.6 ± 6.7 ms, the HR (Female, 100 mg/kg, 1 h (d 26)) was 246.4 ± 40.7 bmp and the QRS (Female, 100 mg/kg, 1 h (d 26)) was 38.0 ± 4.5 ms. It also gave a QT (Female, 100 mg/kg, 1 h (d 26)) of 170.0 ± 10.0 ms, a QTc (Female, 100 mg/kg, 1 h (d 26)) of 271.1 ± 17.2 ms and an HR (Female, 100 mg/kg, 24 h (d 1)) of 217.6 ± 22.7 bmp. For the same molecule, the QRS (Female, 100 mg/kg, 24 h (d 1)) was 34.0 ± 5.5 ms, the QT (Female, 100 mg/kg, 24 h (d 1)) was 162.0 ± 11.0 ms and the QTc (Female, 100 mg/kg, 24 h (d 1)) was 248.2 ± 7.7 ms. The HR (Female, 100 mg/kg, 24 h (d 26)) was 256.1 ± 17.1 bmp, the QRS (Female, 100 mg/kg, 24 h (d 26)) was 38.0 ± 4.5 ms and the QT (Female, 100 mg/kg, 24 h (d 26)) was 148.0 ± 8.4 ms. It also gave a QTc (Female, 100 mg/kg, 24 h (d 26)) of 239.8 ± 10.5 ms, an HR (Female, 100 mg/kg, d0) of 182.3 ± 28.9 bmp and a QRS (Female, 100 mg/kg, d0) of 32.0 ± 4.5 ms. The QT (Female, 100 mg/kg, d0) was 170.0 ± 12.2 ms, the QTc (Female, 100 mg/kg, d0) was 245.0 ± 9.2 ms and the HR (Female, 100 mg/kg, d 56) was 230.8 ± 5.0 bmp. For the same molecule, the QRS (Female, 100 mg/kg, d 56) was 30.0 ± 0.0 ms, the QT (Female, 100 mg/kg, d 56) was 160.0 ± 0.0 ms and the QTc (Female, 100 mg/kg, d 56) was 250.7 ± 1.8 ms. For the same molecule, the HR (Female, 450 mg/kg, 1 h (d 1)) was 211.3 ± 20.5 bmp, the QRS (Female, 450 mg/kg, 1 h (d 1)) was 50.0 ± 14.1 ms and the QT (Female, 450 mg/kg, 1 h (d 1)) was 175.0 ± 17.3 ms. For the same molecule, the QTc (Female, 450 mg/kg, 1 h (d 1)) was 265.5 ± 19.9 ms, the HR (Female, 450 mg/kg, 1 h (d 26)) was 262.7 ± 15.4 bmp and the QRS (Female, 450 mg/kg, 1 h (d 26)) was 40.0 ± 0.2 ms. It also gave a QT (Female, 450 mg/kg, 1 h (d 26)) of 140.0 ± 8.2 ms, a QTc (Female, 450 mg/kg, 1 h (d 26)) of 229.0 ± 14.6 ms and an HR (Female, 450 mg/kg, 24 h (d 1)) of 211.3 ± 2.4 bmp. For the same molecule, the QRS (Female, 450 mg/kg, 24 h (d 1)) was 35.0 ± 5.8 ms, the QT (Female, 450 mg/kg, 24 h (d 1)) was 162.5 ± 9.6 ms and the QTc (Female, 450 mg/kg, 24 h (d 1)) was 247.2 ± 13.8 ms. The HR (Female, 450 mg/kg, 24 h (d 26)) was 257.8 ± 9.0 bmp, the QRS (Female, 450 mg/kg, 24 h (d 26)) was 32.5 ± 5.0 ms and the QT (Female, 450 mg/kg, 24 h (d 26)) was 152.5 ± 9.6 ms. For the same molecule, the QTc (Female, 450 mg/kg, 24 h (d 26)) was 247.8 ± 14.4 ms, the HR (Female, 450 mg/kg, d0) was 174.1 ± 28.8 bmp and the QRS (Female, 450 mg/kg, d0) was 32.0 ± 4.5 ms. The QT (Female, 450 mg/kg, d0) was 168.0 ± 16.4 ms, the QTc (Female, 450 mg/kg, d0) was 238.1 ± 12.7 ms and the HR (Female, 450 mg/kg, d 56) was 207.4 ± 28.1 bmp. For the same molecule, the QRS (Female, 450 mg/kg, d 56) was 25.0 ± 7.1 ms, the QT (Female, 450 mg/kg, d 56) was 170.0 ± 14.1 ms and the QTc (Female, 450 mg/kg, d 56) was 256.3 ± 9.7 ms. The HR (Male, 20 mg/kg, 1 h (d 1)) was 216.0 ± 27.0 bmp, the QRS (Male, 20 mg/kg, 1 h (d 1)) was 32.0 ± 4.5 ms and the QT (Male, 20 mg/kg, 1 h (d 1)) was 158.0 ± 11.0 ms.
